PMC9944328 (Nature Communications, 2023)

System: SSTR2
Test: SSTR2 internalization by ELISA, HEK293, 30 min 37 °C (wild-type)
Assay type: cell-based, human
Settings: for Internalization of wild-type SSTR2: same concentration for both drugs, also confocal and Bystander BRET
Procedure: HEK293 cells were seeded into 96-well microplates at a density of 4 × 10^4 cells/well and cultured for 24 h at 37 °C with 5% CO2 and were transfected using the same procedure as the cAMP accumulation assay. The plates were washed with washing buffer (PBS) the day after transfection, and were fixed with 4% formalin at room temperature for 30 min. Cells were washed with washing buffer and blocked with PBS supplemented with 5% BSA for 1 h at room temperature. After that, cells were incubated with anti-Flag antibody (1:1000 diluted with PBS containing 5% BSA, Proteintech: 66008-4-Ig) for 1 h at room temperature. After 1 h incubation, cells were washed with washing buffer and incubating with HRP-conjugated secondary antibody for 2 h at room temperature. After incubating and washing, 50 μl of chromogenic solution was added to each well, and reacted at room temperature for 10 min, and then 0.5 M HCl were added to stop the reaction.
All data presented are means at least three independent experiments.

| SMILES | Receptor internalization (SSTR2 WT, compared with octreotide, Fig. 1d–f) | Internalization of wild-type SSTR2 |
| --- | --- | --- |
| N#Cc1cccc(-c2ccc3ncc(-c4cc(F)cc(F)c4)c(N4CCC(N)CC4)c3c2)c1O [paltusotine] | less receptor internalization | reduced |
| C[C@@H](O)[C@@H]1NC(=O)[C@H](CCCCN)NC(=O)[C@@H](Cc2c[nH]c3ccccc23)NC(=O)[C@H](Cc2ccccc2)NC(=O)[C@@H](NC(=O)[C@H](N)Cc2ccccc2)CSSC[C@@H](C(=O)N[C@H](CO)[C@@H](C)O)NC1=O [octreotide] |  | obviously internalized |
